Values quoted from earlier work in article PMC5949348, “The Metabolism of Separase Inhibitor Sepin-1 in Human, Mouse, and Rat Liver Microsomes” (Frontiers in Pharmacology, 2018).

Test system: breast cancer xenografts
Parameters: method as in Zhang et al., 2014
Settings: mice; ref Zhang et al., 2014; cited from earlier work

SMILES: CC1(C)[N+]([O-])=c2ccc([N+](=O)[O-])cc2=[N+]1[O-] [Sepin-1, 2,2-dimethyl-5-nitro-2H-benzimidazole-1,3-dioxide]
- Inhibition of breast cancer xenograft growth: inhibits the growth of breast cancer xenografts in mice
